Data reported in publication PMC3118801, “Tyrosine Kinase Syk Non-Enzymatic Inhibitors and Potential Anti-Allergic Drug-Like Compounds Discovered by Virtual and In Vitro Screening” (PLoS ONE, 2011).
In brackets after ≈: the same amount, converted by molar mass. Like-named read-outs stand apart in the source and are kept apart here.

Tests used:
[1] = molecular target: T1, Syk (GST:Syk 6-242 fusion protein) (Homo sapiens, UniProt P43405); experiment: ELISA-based Antibody Displacement Assay (binding of scFv G4G11 to Syk); settings: 10 µM small molecule, 100 nM G4G11
T1 construct: Recombinant GST:Syk 6-242 fusion protein [34] was immobilized on an ELISA plate; made in house
Protocol: To determine the ability of the compounds to affect the binding of scFv G4G11 to Syk in vitro, we tested them individually in an ELISA-based Antibody Displacement Assay (see Materials and Methods). For this purpose, all 1000 compounds were reconstituted in DMSO, and they were tested at a final concentration of 10 µM in PBS. Compound C-13 was reconstituted in DMF and was used in parallel as a control. The capacity of each compound to inhibit the binding of G4G11 to Syk was evaluated in comparison to the binding of G4G11 to Syk in PBS (final concentration of 100 nM) containing the appropriate concentrations of DMSO or DMF.
Recombinant GST:Syk 6-242 fusion protein [34] was immobilized on an ELISA plate at final concentration of 10 µg ml^−1. For the screening assay, small molecules diluted in PBS at final concentration of 10 µM were added to the wells for one hour at RT, before adding myc-tagged scFv G4G11 at final concentration of 100 nM for one additional hour. The binding of G4G11 to Syk was evaluated by adding HRP-conjugated mAb 9E10 which detects the amino acid sequence EQKLISEEDLN of human c-myc protein located at the C-terminal end of the scFv.

RBL-2H3 mast cells [2] = experiment: FcεRI-induced β-hexosaminidase release (mast cell degranulation); type: cell-based, rat
Protocol: The 85 compounds were then tested in a cellular functional assay in order to evaluate their ability to inhibit the liberation of allergic mediators from mast cells. The test is based on the measure of the liberation by exocytosis of the enzyme β-hexosaminidase following the stimulation of the FcεRI, the high affinity receptor for IgE at the surface of mast cells. To this aim, RBL-2H3 mast cells were incubated with each compound for one hour at a final concentration of 20 µM, and β-hexosaminidase release following FcεRI stimulation was measured.
The mouse IgE anti-DNP monoclonal antibody 2682-I was used as hybridoma culture supernatants which contained 1 µg ml^−1 IgE. RBL-2H3 rat basophilic leukaemia cells (ATCC) were maintained as monolayer cultures in RPMI 1640 medium supplemented with 10% fetal bovine serum (Gibco). Measurements of β-hexosaminidase release in RBL-2H3 cells were performed as described, except that after 12–16 h incubation with anti-DNP IgE (0.5 µg ml^−1), cells were incubated for 90 min at 37°C in RPMI medium supplemented with the indicated concentrations of small molecules or DMSO (0.25%). Cells were challenged for 45 min with DNP-BSA (50 ng ml^−1).

Syk [3] = molecular target: T2, Syk (Homo sapiens, UniProt P43405); experiment: Direct binding to Syk by fluorescence spectroscopy
Protocol: Direct binding to Syk of a selection of these 85 compounds was investigated using fluorescence spectroscopy.
For each compound, the ChemBridge ID and the cluster to which it belongs are reported. Direct binding to Syk of some compounds was measured using fluorescence spectroscopy (Kd: dissociation constant). Antibody inhibition percentage reflects the capacity of each compound to inhibit the binding of scFv G4G11 to Syk (final concentrations of 10 µM for small molecules and 100 nM for G4G11). The ability of each compound to inhibit the liberation of allergic mediators from mast cells is measured (**: IC50 values of cell degranulation ≥20 µM). Some physicochemical properties computed with FAFDrugs2, as well as the possible ADMET problems detected by our tool are reported. The computations involved: molecular weight (MW), logP, topological polar surface area (tPSA), H-bond acceptors and donors (HBA, HBD). (PDF) Click here for additional data file.

RBL-2H3 mast cells [4] = experiment: Ionomycin-induced degranulation as control of the degranulation machinery (toxic effects); type: cell-based, rat; settings: ionomycin treatment, concentrations up to 10 µM
Protocol: To address the possible toxic effects of these compounds on degranulation, we performed a dose-dependent experiment in which FcεRI-dependent degranulation of mast cells was performed in parallel with ionomycin-induced degranulation as a control of the degranulation machinery. […] The ADMET profile of our 10 bioactive compounds was analyzed further. […] In addition, the solubility was measured experimentally and the Lipinski “rule of five” descriptors were computed to probe further the molecules from cluster 2 (Table 1).
Figure 5 Compounds 7501888 and 7722851 impair FcεRI-induced mast cell degranulation. β-hexosaminidase release from mast cells was evaluated in comparison to ionomycin-induced degranulation as a control of the machinery.

[5] = Solubility measurement in PBS by HPLC; type: physicochemical; settings: aqueous buffer, kinetic from dmso stock, from 10 mM DMSO stock, 25°C
Protocol: 4 µl of a 10 mM DMSO stock solution from of each sample were dissolved in 400 µl of PBS and sonicated for 5 minutes. The samples were centrifuged for 15 minutes at 4000 rpm at 25°C, then 250 µl of each sample were transferred to a 96 well plate. 10 µl of each sample were analyzed by HPLC and the sample concentrations were calculated against a series of caffeine standards ranging from 1 to 100 µM.

RBL-2H3 mast cells [6] = tested on: RBL-2H3 mast cells; parameters: method as in PMID 18539317; settings: cited from earlier work
Syk [7] = molecular target: T2, Syk; parameters: method as in PMID 18539317; settings: cited from earlier work
anaphylactic shock = tested on: anaphylactic shock; parameters: method as in PMID 18539317; settings: administered orally to mice; cited from earlier work
[8] = Table S1, class symbol, read-out: IC50 Cell Degranulation
[9] = Rattus norvegicus, RBL-2H3, Table S1, class symbol, read-out: IC50 Cell Degranulation
[10] = Rattus norvegicus, Table 1, RBL-2H3, FcεRI stimulation, β-hexosaminidase release, read-out: IC50 Cell Degranulation

| Structure (SMILES) | Antibody Inhibition [1] [%] | IC50 (RBL-2H3 mast cells [2]; [8]) [µM] | also measured |
| --- | --- | --- | --- |
| COc1cccc(C2C(=C(O)c3ccccc3)C(=O)C(=O)N2CCCN2CCOCC2)c1OC (stereo not shown) [compound 6891745] | 27.5 | ≥ 20 | – |
| COC(=O)c1ccc(NC(=O)CN(c2cccc(OC)c2)S(=O)(=O)c2ccccc2)cc1 [compound 7787455] | 20 | – | IC50 (RBL-2H3 mast cells [2]; [9]): ≥ 20 µM |
| COc1cc(-c2nnc(SCC(=O)Nc3ccc(Cl)cc3)n2CCc2ccccc2)cc(OC)c1OC [compound 7501888] | 40 | – | Kd (Syk [3]; Table 1): 8.2 µM; toxic effect on mast cells responses (RBL-2H3 mast cells [4]): no major toxic effect; solubility at 5 min [5]: 6 µM (≈ 3.23 µg/mL); IC50 (RBL-2H3 mast cells [2]; [10]): 4 µM |
| C=CCn1c(CNC(=O)c2cccc(C)c2)nnc1SCC(=O)Nc1cccc(C(=O)OC(C)C)c1 [compound 7783660] | 27 | – | Kd (Syk [3]; Table 1): 4.8 µM; solubility at 5 min [5]: 12.9 µM (≈ 6.55 µg/mL); IC50 (RBL-2H3 mast cells [2]; [10]): 10 µM |
| COc1ccc(S(=O)(=O)N(CCc2ccccc2)CC(=O)Nc2ccc(C(N)=O)cc2)cc1 [compound 6498669] | 63 | ≥ 20 | Kd (Syk [3]; Table S1): 0.8 µM |
| COc1cccc(C2C(=C(O)c3ccc(C)cc3)C(=O)C(=O)N2CCCN2CCOCC2)c1 (stereo not shown) [compound 6882059] | 79.5 | ≥ 20 | Kd (Syk [3]; Table S1): 9.4 µM |
| COc1ccc(C2C(=C(O)c3ccc(C)cc3)C(=O)C(=O)N2CCN2CCOCC2)cc1 (stereo not shown) [compound 6670747] | 50 | ≥ 20 | – |
| CCOC(=O)c1ccc(NC(=O)CSc2nnc(-c3ccco3)c(-c3ccco3)n2)cc1 [compound 7495334] | 43 | – | Kd (Syk [3]; Table 1): 1.6 µM; solubility at 5 min [5]: 35.2 µM (≈ 15.9 µg/mL); IC50 (RBL-2H3 mast cells [2]; [10]): 10 µM |
| COC(=O)c1ccccc1-c1ccc(C=C2SC(=S)N(Cc3ccccc3)C2=O)o1 [C-13, methyl 2-{5-[(3-benzyl-4-oxo-2-thioxo-1,3-thiazolidin-5-ylidene)methyl]-2-furyl}benzoate, reference compound] | 81 | – | FcεRI-induced mast cell degranulation in vitro (RBL-2H3 mast cells [6]): inhibits; Kd (Syk [3]; Table 1): 4 µM; effects on the enzymatic activity of Syk (Syk [7]): no effects; anaphylactic shock in vivo (anaphylactic shock): inhibits; IC50 (RBL-2H3 mast cells [2]; [10]): 2 µM |
| COc1ccccc1C(=O)Nc1ccc(-c2nnc(SCC(=O)c3ccccc3)n2C)cc1 [compound 6282824] | 67.5 | – | Kd (Syk [3]; Table 1): 5.6 µM; solubility at 5 min [5]: 4.5 µM (≈ 2.06 µg/mL); IC50 (RBL-2H3 mast cells [2]; [10]): 5 µM |
| CCOc1ccc(NC(=O)CC2C(=O)N(c3ccc(OC)cc3)C(=S)N2CCN2CCOCC2)cc1 (stereo not shown) [compound 7722914] | 19 | – | Kd (Syk [3]; Table S1): 15.6 µM; IC50 (RBL-2H3 mast cells [2]; Rattus norvegicus, RBL-2H3, Table S1, numeric values, read-out: IC50 Cell Degranulation): 15 µM |
| Cc1ccc(-c2nnc(Nc3cccc(O)c3)c3ccccc23)cc1S(=O)(=O)NC(C)(C)CO [compound 7238569] | 32 | ≥ 20 | – |
| COc1ccc(C2C(=C(O)c3ccc(F)cc3)C(=O)C(=O)N2CCN2CCOCC2)c(OC)c1 (stereo not shown) [compound 6670673] | 50 | ≥ 20 | – |
| C=CCn1c(SCC(=O)Nc2cccc(OC)c2)nnc1C(C)NC(=O)c1ccccc1 (stereo not shown) [compound 7752193] | 35 | – | Kd (Syk [3]; Table 1): 8 µM; solubility at 5 min [5]: 0.3 µM (≈ 0.135 µg/mL); IC50 (RBL-2H3 mast cells [2]; [10]): 10 µM |
| COc1ccc(C2C(C(=O)c3cccs3)=C(O)C(=O)N2CCN2CCOCC2)cc1OC (stereo not shown) [compound 6677533] | 50 | – | IC50 (RBL-2H3 mast cells [2]; [9]): ≥ 20 µM |
| O=C(Nc1ccccc1C(=O)N1CCCC1)c1ccc(CN2CCc3ccccc3C2)cc1 [compound 7199725] | 25 | ≥ 20 | – |
| COc1ccc(C2C(=C(O)c3ccc(F)cc3)C(=O)C(=O)N2CCN2CCOCC2)cc1OC (stereo not shown) [compound 6654239] | 50 | ≥ 20 | – |
| COc1cc(NS(=O)(=O)c2ccc(NC(C)=O)cc2)c(OC)cc1NC(=O)c1ccccc1 [compound 6853966] | 58 | ≥ 20 | – |
| CCOC(=O)c1ccc(NC(=O)CC2C(=O)N(c3ccc(Cl)cc3)C(=S)N2Cc2cccnc2)cc1 (stereo not shown) [compound 7722851] | 39.5 | – | Kd (Syk [3]; Table S1): 21.8 µM; toxic effect on mast cells responses (RBL-2H3 mast cells [4]): no major toxic effect; IC50 (RBL-2H3 mast cells [2]; Rattus norvegicus, RBL-2H3, FcεRI-dependent degranulation of mast cells, read-out: IC50 (degranulation)): 4 µM |
| N#CC1=C(N)Oc2[nH]nc(-c3ccccc3)c2C1c1cccc(OC(=O)c2ccco2)c1 (stereo not shown) [compound 6669449] | 42 | – | IC50 (RBL-2H3 mast cells [2]; [9]): ≥ 20 µM |
| Cc1ccc(-n2c3c(cc(C(=O)NC4CC(C)(C)NC(C)(C)C4)c2=O)C(=O)CC(C)(C)C3)cc1 [compound 6866968] | 57.5 | ≥ 20 | – |
| COc1ccc(OC)c(C2C(=C(O)c3ccc(C)cc3)C(=O)C(=O)N2Cc2cccnc2)c1 (stereo not shown) [compound 6652639] | 70.5 | ≥ 20 | – |
